ChEMBL document CHEMBL4725318, “New vinyl-1,2,4-triazole derivatives as antimicrobial agents: Synthesis, biological evaluation and molecular docking studies” (2020)
≈ marks a conversion by molar mass, not a printed value.

Assays:
Format in all cases: functional
Bacillus subtilis [1] = assay: Bactericidal activity against Bacillus subtilis
Xanthomonas campestris [2] = assay: Antibacterial activity against Xanthomonas campestris by microdilution method
[3] = system: Pectobacterium carotovorum; assay: Bactericidal activity against Erwinia carotovora
Pseudomonas fluorescens [4] = assay: Bactericidal activity against Pseudomonas fluorescens
Erwinia amylovora [5] = assay: Bactericidal activity against Erwinia amylovora
Pseudomonas fluorescens [6] = assay: Antibacterial activity against Pseudomonas fluorescens by microdilution method
Talaromyces funiculosus [7] = assay: Fungicidal activity Penicillium funiculosum
Aspergillus fumigatus [8] = assay: Antifungal activity Aspergillus fumigatus by microdilution method
Aspergillus versicolor [9] = assay: Antifungal activity Aspergillus versicolor by microdilution method
Penicillium ochrochloron [10] = assay: Antifungal activity Penicillium ochrochloron by microdilution method
Talaromyces funiculosus [11] = assay: Antifungal activity Penicillium funiculosum by microdilution method
Aspergillus fumigatus [12] = assay: Fungicidal activity Aspergillus fumigatus
Aspergillus ochraceus [13] = assay: Antifungal activity Aspergillus ochraceus by microdilution method
Trichoderma viride [14] = assay: Fungicidal activity Trichoderma viride
Penicillium cyclopium [15] = assay: Fungicidal activity Penicillium verrucosum var. cyclopium
Erwinia amylovora [16] = assay: Antibacterial activity against Erwinia amylovora by microdilution method
Penicillium ochrochloron [17] = assay: Fungicidal activity Penicillium ochrochloron
Xanthomonas campestris [18] = assay: Bactericidal activity against Xanthomonas campestris
Aspergillus niger [19] = assay: Fungicidal activity Aspergillus niger
Trichoderma viride [20] = assay: Antifungal activity Trichoderma viride by microdilution method
Bacillus subtilis [21] = assay: Antibacterial activity against Bacillus subtilis by microdilution method
Aspergillus ochraceus [22] = assay: Fungicidal activity Aspergillus ochraceus
Aspergillus niger [23] = assay: Antifungal activity Aspergillus niger by microdilution method
Penicillium cyclopium [24] = assay: Antifungal activity Penicillium verrucosum var. cyclopium by microdilution method
Aspergillus versicolor [25] = assay: Fungicidal activity Aspergillus versicolor
[26] = system: Pectobacterium carotovorum; assay: Antibacterial activity against Erwinia carotovora by microdilution method

MIC (Xanthomonas campestris [2]) [µM] | MIC (Pseudomonas fluorescens [6]) [µM] | MIC (Aspergillus fumigatus [8]) [µM] | MIC (Aspergillus versicolor [9]) [µM] | MIC (Penicillium ochrochloron [10]) [µM] | MIC (Talaromyces funiculosus [11]) [µM] | MIC (Aspergillus ochraceus [13]) [µM] | MIC (Erwinia amylovora [16]) [µM] | MIC (Trichoderma viride [20]) [µM] | Compound | MBC (Bacillus subtilis [1]) [µM] | MBC [3] [µM] | MBC (Pseudomonas fluorescens [4]) [µM] | MBC (Erwinia amylovora [5]) [µM] | MFC (Talaromyces funiculosus [7]) [µM] | MFC (Aspergillus fumigatus [12]) [µM] | MFC (Trichoderma viride [14]) [µM] | MFC (Penicillium cyclopium [15]) [µM] | MFC (Penicillium ochrochloron [17]) [µM] | MBC (Xanthomonas campestris [18]) [µM] | MFC (Aspergillus niger [19]) [µM] | also measured
1.3 (≈ 0.482 µg/mL) | 1.3 (≈ 0.482 µg/mL) | 200 (≈ 74.2 µg/mL) | 100 (≈ 37.1 µg/mL) | 100 (≈ 37.1 µg/mL) | 150 (≈ 55.6 µg/mL) | 100 (≈ 37.1 µg/mL) | 2.7 (≈ 1 µg/mL) | 100 (≈ 37.1 µg/mL) | O=C(/C(=C/c1cc([N+](=O)[O-])ccc1O)n1cncn1)c1ccc(Cl)cc1 | 2.7 (≈ 1 µg/mL) | 2.7 (≈ 1 µg/mL) | 2.7 (≈ 1 µg/mL) | 2.7 (≈ 1 µg/mL) | 200 (≈ 74.2 µg/mL) | 410 (≈ 152 µg/mL) | 200 (≈ 74.2 µg/mL) | 410 (≈ 152 µg/mL) | 200 (≈ 74.2 µg/mL) | 2.7 (≈ 1 µg/mL) | 200 (≈ 74.2 µg/mL) | MIC (Bacillus subtilis [21]): 2.7 µM (≈ 1 µg/mL); MFC (Aspergillus ochraceus [22]): 200 µM (≈ 74.2 µg/mL); MIC (Aspergillus niger [23]): 150 µM (≈ 55.6 µg/mL); MIC (Penicillium cyclopium [24]): 200 µM (≈ 74.2 µg/mL); MFC (Aspergillus versicolor [25]): 200 µM (≈ 74.2 µg/mL); MIC [26]: 2.7 µM (≈ 1 µg/mL)
1.3 (≈ 0.461 µg/mL) | 0.6 (≈ 0.213 µg/mL) | 100 (≈ 35.5 µg/mL) | 100 (≈ 35.5 µg/mL) | 100 (≈ 35.5 µg/mL) | 140 (≈ 49.7 µg/mL) | 70 (≈ 24.8 µg/mL) | 1.3 (≈ 0.461 µg/mL) | 70 (≈ 24.8 µg/mL) | O=C(/C(=C/c1ccc([N+](=O)[O-])cc1)n1cncn1)c1ccc(Cl)cc1 | 1.3 (≈ 0.461 µg/mL) | 1.3 (≈ 0.461 µg/mL) | 1.3 (≈ 0.461 µg/mL) | 1.3 (≈ 0.461 µg/mL) | 190 (≈ 67.4 µg/mL) | 190 (≈ 67.4 µg/mL) | 100 (≈ 35.5 µg/mL) | 190 (≈ 67.4 µg/mL) | 190 (≈ 67.4 µg/mL) | 1.3 (≈ 0.461 µg/mL) | 190 (≈ 67.4 µg/mL) | MIC (Bacillus subtilis [21]): 1.3 µM (≈ 0.461 µg/mL); MFC (Aspergillus ochraceus [22]): 100 µM (≈ 35.5 µg/mL); MIC (Aspergillus niger [23]): 140 µM (≈ 49.7 µg/mL); MIC (Penicillium cyclopium [24]): 140 µM (≈ 49.7 µg/mL); MFC (Aspergillus versicolor [25]): 190 µM (≈ 67.4 µg/mL); MIC [26]: 1.3 µM (≈ 0.461 µg/mL)

More lines, now with the values behind:

Compound | MIC (Xanthomonas campestris [2]) [µM] | MIC (Pseudomonas fluorescens [6]) [µM] | MIC (Aspergillus fumigatus [8]) [µM] | MIC (Aspergillus versicolor [9]) [µM] | MIC (Penicillium ochrochloron [10]) [µM] | MIC (Talaromyces funiculosus [11]) [µM] | MIC (Aspergillus ochraceus [13]) [µM] | MIC (Erwinia amylovora [16]) [µM] | MIC (Trichoderma viride [20]) [µM] | MBC (Bacillus subtilis [1]) [µM] | MBC [3] [µM] | MBC (Pseudomonas fluorescens [4]) [µM] | MBC (Erwinia amylovora [5]) [µM] | MFC (Talaromyces funiculosus [7]) [µM] | MFC (Aspergillus fumigatus [12]) [µM] | MFC (Trichoderma viride [14]) [µM] | MFC (Penicillium cyclopium [15]) [µM] | MFC (Penicillium ochrochloron [17]) [µM] | MBC (Xanthomonas campestris [18]) [µM] | MFC (Aspergillus niger [19]) [µM] | also measured
O=C(/C(=C/c1ccccc1)n1cncn1)c1ccc(Cl)cc1Cl | 2.9 (≈ 0.998 µg/mL) | 2.9 (≈ 0.998 µg/mL) | 160 (≈ 55.1 µg/mL) | 80 (≈ 27.5 µg/mL) | 160 (≈ 55.1 µg/mL) | 220 (≈ 75.7 µg/mL) | 100 (≈ 34.4 µg/mL) | 2.9 (≈ 0.998 µg/mL) | 50 (≈ 17.2 µg/mL) | 5.8 (≈ 2 µg/mL) | 5.8 (≈ 2 µg/mL) | 2.9 (≈ 0.998 µg/mL) | 2.9 (≈ 0.998 µg/mL) | 440 (≈ 151 µg/mL) | 220 (≈ 75.7 µg/mL) | 100 (≈ 34.4 µg/mL) | 440 (≈ 151 µg/mL) | 440 (≈ 151 µg/mL) | 2.9 (≈ 0.998 µg/mL) | 220 (≈ 75.7 µg/mL) | MIC (Bacillus subtilis [21]): 2.9 µM (≈ 0.998 µg/mL); MFC (Aspergillus ochraceus [22]): 220 µM (≈ 75.7 µg/mL); MIC (Aspergillus niger [23]): 160 µM (≈ 55.1 µg/mL); MIC (Penicillium cyclopium [24]): 220 µM (≈ 75.7 µg/mL); MFC (Aspergillus versicolor [25]): 220 µM (≈ 75.7 µg/mL); MIC [26]: 2.9 µM (≈ 0.998 µg/mL)
CN(C)c1ccc(/C=C(/C(=O)c2ccc(-c3ccccc3)cc2)n2cncn2)cc1 | 5.1 (≈ 2.01 µg/mL) | 2.5 (≈ 0.986 µg/mL) | 250 (≈ 98.6 µg/mL) | 250 (≈ 98.6 µg/mL) | 130 (≈ 51.3 µg/mL) | 180 (≈ 71 µg/mL) | 130 (≈ 51.3 µg/mL) | 2.5 (≈ 0.986 µg/mL) | 90 (≈ 35.5 µg/mL) | 5.1 (≈ 2.01 µg/mL) | 5.1 (≈ 2.01 µg/mL) | 2.5 (≈ 0.986 µg/mL) | 2.5 (≈ 0.986 µg/mL) | 250 (≈ 98.6 µg/mL) | 510 (≈ 201 µg/mL) | 130 (≈ 51.3 µg/mL) | 510 (≈ 201 µg/mL) | 250 (≈ 98.6 µg/mL) | 5.1 (≈ 2.01 µg/mL) | 510 (≈ 201 µg/mL) | MIC (Bacillus subtilis [21]): 2.5 µM (≈ 0.986 µg/mL); MFC (Aspergillus ochraceus [22]): 250 µM (≈ 98.6 µg/mL); MIC (Aspergillus niger [23]): 250 µM (≈ 98.6 µg/mL); MIC (Penicillium cyclopium [24]): 250 µM (≈ 98.6 µg/mL); MFC (Aspergillus versicolor [25]): 510 µM (≈ 201 µg/mL); MIC [26]: 2.5 µM (≈ 0.986 µg/mL)
CC(C)CC(=O)/C(=C/c1ccc([N+](=O)[O-])cc1)n1cncn1 | 0.8 (≈ 0.24 µg/mL) | 3.3 (≈ 0.991 µg/mL) | 20 (≈ 6.01 µg/mL) | 40 (≈ 12 µg/mL) | 30 (≈ 9.01 µg/mL) | 40 (≈ 12 µg/mL) | 20 (≈ 6.01 µg/mL) | 0.4 (≈ 0.12 µg/mL) | 30 (≈ 9.01 µg/mL) | 0.8 (≈ 0.24 µg/mL) | 0.8 (≈ 0.24 µg/mL) | 3.3 (≈ 0.991 µg/mL) | 0.8 (≈ 0.24 µg/mL) | 60 (≈ 18 µg/mL) | 30 (≈ 9.01 µg/mL) | 60 (≈ 18 µg/mL) | 60 (≈ 18 µg/mL) | 60 (≈ 18 µg/mL) | 0.8 (≈ 0.24 µg/mL) | 30 (≈ 9.01 µg/mL) | MIC (Bacillus subtilis [21]): 0.8 µM (≈ 0.24 µg/mL); MFC (Aspergillus ochraceus [22]): 30 µM (≈ 9.01 µg/mL); MIC (Aspergillus niger [23]): 20 µM (≈ 6.01 µg/mL); MIC (Penicillium cyclopium [24]): 40 µM (≈ 12 µg/mL); MFC (Aspergillus versicolor [25]): 60 µM (≈ 18 µg/mL); MIC [26]: 0.4 µM (≈ 0.12 µg/mL)
O=C(/C(=C/c1cccc(O)c1)n1cncn1)c1ccccc1 | 1.7 (≈ 0.495 µg/mL) | 1.7 (≈ 0.495 µg/mL) | 380 (≈ 111 µg/mL) | 260 (≈ 75.7 µg/mL) | 260 (≈ 75.7 µg/mL) | 260 (≈ 75.7 µg/mL) | 190 (≈ 55.3 µg/mL) | 1.7 (≈ 0.495 µg/mL) | 190 (≈ 55.3 µg/mL) | 6.9 (≈ 2.01 µg/mL) | 1.7 (≈ 0.495 µg/mL) | 1.7 (≈ 0.495 µg/mL) | 3.4 (≈ 0.99 µg/mL) | 520 (≈ 151 µg/mL) | 520 (≈ 151 µg/mL) | 260 (≈ 75.7 µg/mL) | 520 (≈ 151 µg/mL) | 520 (≈ 151 µg/mL) | 3.4 (≈ 0.99 µg/mL) | 100 (≈ 29.1 µg/mL) | MIC (Bacillus subtilis [21]): 6.9 µM (≈ 2.01 µg/mL); MFC (Aspergillus ochraceus [22]): 520 µM (≈ 151 µg/mL); MIC (Aspergillus niger [23]): 520 µM (≈ 151 µg/mL); MIC (Penicillium cyclopium [24]): 380 µM (≈ 111 µg/mL); MFC (Aspergillus versicolor [25]): 520 µM (≈ 151 µg/mL); MIC [26]: 1.7 µM (≈ 0.495 µg/mL)
